Experimental data from patent US20040120954A1, “Regulation of mt1-mmp activity” (priority 2000, published 2004).

Key:
HT1080 cells [1] = experiment: Matrigel invasion assay (modified Boiden-chamber method); format: cell-based, human; conditions: HT1080 cells transfected with the expression plasmid (with GFP), 14 hrs (FIG. 15)
Method: Matrigel Invasion Chambers were prepared according to the manufacturer's instructions (Becton Dickinson Labware, MA, USA) by coating, with […] of Matrigel, the 8 μm-pore sized membrane of the culture inserts for 24-well plates (Falcon). A 0.5 ml aliquot of transfected HT1080 cell suspension at 0.1×10^5/ml was seeded on the upper chamber and incubated at 37° C. in a humidified chamber. Hepatocyte growth factor (Toyobo; 10 ng/ml) was added to the lower chamber as a chemo-attractant. After 14 hrs of incubation, cells remaining on the upper surface of the membrane were removed, and cells on the lower surface were fixed with 3% para-formaldehyde in PBS. Green fluorescent protein (GFP)-positive cells that had invaded to the lower, surface were counted using fluorescence microscopy (×40).
Cells were transiently transfected with a vector for MT1PEX-F, together with an expression vector for green fluorescent protein (GFP), and GFP-positive invading cells were counted under fluorescence microscopy. HT1080 cells were co-transfected with expression vectors for MT1PEX-F and GFP, or with an expression vector for GFP alone. The cells were assayed for Matrigel invasion as described below. The modified Boiden-chamber method was carried out. […]
TIMP-2 at 0.5 μg/ml was added to the upper and lower chambers. GFP-positive cells on the surface of the lower chamber were counted using fluorescence microscopy. […]

MT1-MMP [2] = biological target: T1, MT1-MMP (Homo sapiens, UniProt P50281); experiment: In situ gelatin degrading assay (DQ gelatin or Alexa488-conjugated gelatin); format: cell-based; conditions: COS1 cells co-transfected with MT1-MMP, Alexa488-labeled gelatin (FIG. 30)
T1 construct: expressed in transfected cells
Method: (§1) Two different in situ gelatin degrading assays were performed. One used DQ™ gelatin (Molecular Probes, Inc., OR, USA). DQ gelatin is a fluorescence-quenched gelatin substrate, and will fluoresce upon proteolytic cleavage. Glass cover slips were coated with 5% DQ™ gelatin in a 10 mg/ml unlabeled gelatin solution, and dried. Transfected cells were cultured on the cover slip in a humidified chamber for 16 hrs. The cells were then fixed with 3% para-formaldehyde and the degraded areas were visualized as those showing fluorescence.
(§2) The other assay used Alexa488-conjugated gelatin made with an Alexa488-labeling kit (Molecular Probes). The bottom surfaces of 4-well chamber slides (Nunc) were coated with Alexa488-conjugated gelatin according to the method of Yana, I. and Weiss, S. J., Mol. Biol. Cell, 11, 2387-2401, 2000. Transfected COS1 cells were cultured in the chamber slides for 16 hrs in a humidified culture incubator. The cells were then fixed with 3% para-formaldehyde in PBS, and the degraded area was analyzed under a fluorescence microscope. The degraded area was visualized as a dark, non-fluorescent area. Fluorescence images were analyzed using confocal microscopy (BioRad).
(§3) Next, to determine if MT1PEX-F affects the catalytic activity of MT1-MMP on the cell surface or not, tests for gelatin degrading activity and binding capacity to TIMP-2 were conducted using cells transfected in the same incubator. As shown in FIGS. 12 through 14, CHO-K1 cells were transfected with an expression vector for MT1-F, MT1-F/MT1PEX-F or MT1Cat-F, or a vector alone (Mock). The cells were then treated with trypsin, and separately seeded to: DQ™ gelatin-coated cover slips for testing the proteolytic activity (FIG. 13); and 24-well plates for TIMP-2 binding assay (FIG. 12) and for the activation of proMMP-2 (FIG. 14). Transfected cells on the DQ™ gelatin-coated cover slip as shown in FIG. 13 were incubated in a medium at 37° C. for 18 hrs, and the generated fluorescence was analyzed using confocal microscopy. Transfected cells on the 24-well plate as shown in FIG. 12 were incubated with 25 nM ^125I-labeled TIMP-2 in the presence or absence of BB-94 (50 μM) at 0° C. for 1 hr. MT1-MMP specific binding was calculated by subtracting the datum obtained in the presence of BB-94 (50 μM) from each datum derived from the corresponding experiments. Identically transfected cells on the 24-well plate as shown in FIG. 14 were subjected to the reaction with purified proMMP-2 in a serum-free medium at 37° C. for 18 hrs. The cells and culture supernatants were respectively subjected to Western blotting analysis using a monoclonal anti-FLAG M2 antibody, and gelatin zymography analysis. […] DQ™ gelatin is a fluorescence-quenched gelatin, which fluoresces upon proteolytic cleavage. […]

HT1080 cells [3] = experiment: Activation of endogenous proMMP-2 in HT1080 cells (zymography, Western blotting); format: cell-based, human
Method: FIG. 31: In regard to the efficacy of MT1PEX-F on the matrigel invasive action of HT1080 cells, HT1080 cells were transfected with the stable expression plasmids for MT1PEX-F and the empty vector (Mock). Hygromycin resistant cells were collected and re-seeded. The culture medium was changed to a serum-free medium in the presence or absence of BB94, and the cells were further cultured. The culture media and the cell lysates were analyzed by gelatin zymography and Western blotting using an anti-MT1PEX antibody, respectively.
HT1080 cells are known to express MT1-MMP and MMP-2 endogenously. Thus, the efficacy of MT1PEX-F expression on the activation of endogenous proMMF-2 in HT1080 cells was next examined. The cells were transfected with a plasmid for MT1PEX-F or an empty vector bearing the hygromycin-resistant gene. The culture medium from the hygromycin-resistant cells was analyzed for produced MMP-2 by zymography. […] Co-expression of endogenous MT1-MMP and MT1PEX-F clearly indicated the co-localization of both molecules at the edge of the cells (FIG. 32).

MT1-MMP [4] = experiment: In situ gelatin degrading assay (DQ gelatin or Alexa488-conjugated gelatin); format: cell-based, human; conditions: DQ gelatin; CHO-K1 (FIG. 13) or COS1 cells (FIG. 22)
Method: as §1, §2, §3

Substance: MT1PEX-F: Catalytic domain-deleted FLAG-tagged MT1-MMP (Δ Tyr112-Pro312), expressed by transfection
- suppression of Matrigel invasion (HT1080 cells [1]): 70%
- effect on the proteolytic activity of MT1-MMP on the cell surface (MT1-MMP [2]): did not affect the proteolytic activity
- effect on expression and processing of endogenous MT1-MMP (HT1080 cells [3]; HT1080 cell lysates, Western blotting (FIG. 31)): did not affect the expression and processing of endogenous MT1-MMP
- activation of endogenous proMMP-2 (HT1080 cells [3]; hygromycin-resistant HT1080 cells, serum-free medium (FIG. 31)): did not effectively activate proMMP-2

Substance: MT1Cat-F: PEX-deleted FLAG-tagged MT1-MMP (Δ Ile318-Gly535)
- gelatin degrading (proteolytic) activity of cells expressing the mutant (MT1-MMP [4]): exhibited the gelatin degrading activity
